Results on three compounds are retold here after article PMC3966854, “Probenecid Blocks Human P2X7 Receptor-Induced Dye Uptake via a Pannexin-1 Independent Mechanism” (PLoS ONE, 2014).

Holding throughout (assay type): cell-based
Experiment [1] concerns the target T1, human P2X7 receptor (Homo sapiens, UniProt Q99572).
T1 sequence (Q99572 1-595): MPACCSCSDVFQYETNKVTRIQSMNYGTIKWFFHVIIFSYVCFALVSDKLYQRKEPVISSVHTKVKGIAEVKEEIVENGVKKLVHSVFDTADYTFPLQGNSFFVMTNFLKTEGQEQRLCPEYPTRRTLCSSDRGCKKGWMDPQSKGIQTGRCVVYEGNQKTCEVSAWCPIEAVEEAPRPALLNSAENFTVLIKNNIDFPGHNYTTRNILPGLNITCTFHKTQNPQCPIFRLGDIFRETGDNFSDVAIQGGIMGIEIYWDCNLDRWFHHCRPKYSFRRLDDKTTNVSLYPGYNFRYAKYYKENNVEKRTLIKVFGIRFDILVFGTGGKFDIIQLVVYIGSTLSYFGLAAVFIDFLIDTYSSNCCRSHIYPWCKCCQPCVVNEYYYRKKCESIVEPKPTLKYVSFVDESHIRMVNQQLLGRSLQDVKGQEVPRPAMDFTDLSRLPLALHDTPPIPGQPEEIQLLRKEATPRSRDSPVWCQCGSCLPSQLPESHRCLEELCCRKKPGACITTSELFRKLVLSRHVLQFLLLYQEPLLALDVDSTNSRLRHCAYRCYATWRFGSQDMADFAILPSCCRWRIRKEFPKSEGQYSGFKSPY
The experiment is described as follows: Fluo-4 calcium influx and ethidium dye uptake; complete block at […]. Also on record: gene P2RX7; human P2X7 stably expressed in HEK-293 cells.

Experiment [2] deals with T1, human P2X7 receptor. The experiment is described as follows: ATP-induced ethidium dye uptake; complete block at […]. Also on record: gene P2RX7; human P2X7 stably expressed in HEK-293 cells.
In experiment [3] the target is T2, rat P2X7 (Rattus norvegicus, UniProt Q64663).
T2 construct: gene P2rx7; rat P2X7 stably expressed in HEK-293 cells
T2 sequence (Q64663 1-595): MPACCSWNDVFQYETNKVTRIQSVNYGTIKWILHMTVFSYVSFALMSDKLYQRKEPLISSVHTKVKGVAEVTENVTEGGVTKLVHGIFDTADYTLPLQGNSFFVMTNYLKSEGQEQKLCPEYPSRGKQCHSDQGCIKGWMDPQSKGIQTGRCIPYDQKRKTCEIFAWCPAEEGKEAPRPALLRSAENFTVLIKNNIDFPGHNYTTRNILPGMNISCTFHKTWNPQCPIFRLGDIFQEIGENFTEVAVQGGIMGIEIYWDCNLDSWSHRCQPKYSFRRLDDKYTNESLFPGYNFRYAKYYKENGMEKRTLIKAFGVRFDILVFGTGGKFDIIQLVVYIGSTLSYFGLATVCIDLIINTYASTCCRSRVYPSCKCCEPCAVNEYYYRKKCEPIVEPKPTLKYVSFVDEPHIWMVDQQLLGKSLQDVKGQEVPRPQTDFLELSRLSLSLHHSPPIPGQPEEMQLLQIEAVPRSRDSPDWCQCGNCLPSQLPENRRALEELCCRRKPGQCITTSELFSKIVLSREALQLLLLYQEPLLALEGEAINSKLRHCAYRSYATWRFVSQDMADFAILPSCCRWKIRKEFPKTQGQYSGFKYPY
Briefly: ATP-induced ethidium dye uptake, […] inhibition at […]. The following applies: read-out: % inhibition at 2.5 mM.

The target of experiment [4] is T1, human P2X7 receptor. The experiment is described as follows: whole-cell patch clamp, Fluo-4 calcium influx and ethidium dye uptake (IC50 from dye uptake, […] ATP). The arrangement: gene P2RX7; wild-type human P2X7 stably expressed in HEK-293 cells.

In the case of `Clc1cccc(-c2nnnn2Cc2cccnc2)c1Cl` [A-438079], in experiment [1], the “Fluo-4 calcium influx and ethidium dye uptake; complete block at 10 μM” value was found to be 10 µM. As to `O=C1CSC(=O)N1C(CCc1ccncc1)COc1ccc(-c2cccc([N+](=O)[O-])c2)cc1` (stereo not shown) [AZ11645373], the “ATP-induced ethidium dye uptake; complete block at 10 μM” value in experiment [2] is 10 µM. One may read the inhibition as the percentage by which the read-out fell short of the control. In general, IC50 refers to the concentration that gives 50% inhibition. Regarding `CCCN(CCC)S(=O)(=O)c1ccc(C(=O)O)cc1` [PRO, Probenecid], in experiment [3], the inhibition at 2500 µM was found to be 34%. Further, the 50% inhibitory concentration (IC50) in experiment [4] turned out to be 203 µM.
